# Values quoted from earlier work, collected in PMC8623647 (Pharmaceuticals, 2021).
# Test system: MAO-B
# Set-up: method as in PMID 30915862
# Details: study of Shalaby et al. ref 25; cited from earlier work
structure (smiles),measurement,value
CSc1ccc(C(=O)/C=C/c2cccc(Br)c2)cc1 [(E)-3-(3-bromophenyl)-1-(4-(methylthio)phenyl)prop-2-en-1-one],IC50,190 ± 10 nM
